Results taken from US12570614B2, “Phenyl amino pyrimidine compounds and uses thereof” (GlaxoSmithKline LLC, priority 2007, dated 2026).
“Also recorded” adds a separate entry of the source.

Assays:
[1] = test system: growth hormone-stimulated insulin-like growth factor-1 (IGF-1); test: Growth hormone-stimulated IGF-1 concentrations in mouse plasma; format: in vivo; conditions: female C3/H mice, 50 mg/kg oral gavage 8 h and 30 min prior to GH, 6 h post-GH
Procedure: Blood samples were collected 6 h post-GH administration, and plasma IGF-1 concentrations measured using an ELISA for mouse IGF-1 (R & D Systems). Different superscripts denote significant differences (p<0.05) between groups detected by one-way ANOVA and Bonferroni's test post-hoc.

[2] = test system: IL-3 induced STAT5 phosphorylation in BaF3 cells; test: Western blot of IL-3 induced STAT5 phosphorylation in BaF3 cells; format: cell-based, murine; conditions: 2 hours compound, mouse IL-3 5 ng/ml 15 minutes
Procedure: The Western blots were treated with a STAT5 phospho-specific antibody and exposed to film for 5 minutes (top blot) and 1 minute (middle blot).
The murine pro-B cell line BaF3 was routinely maintained in RPMI 1640 media containing 10% FCS. On the day of the experiment, cells were washed twice in PBS, and resuspended in RPMI 1640 media containing 0.1% FCS. […] Mouse IL-3 was then added to cells at a final concentration of 5 ng/ml for 15 minutes. Cells were then placed on ice and washed twice in ice-cold PBS. Washed cell pellets were snap-frozen in liquid nitrogen and stored at −80° C.
Cell pellets were lysed on ice in RIPA buffer, and lysates clarified by centrifugation (20,000×g, 4° C., 5 min). The protein concentration of lysates was determined by the Bradford method, and equal amounts of protein (60 μg/lane) were separated by SDS-PAGE. Protein was then transferred to PVDF, and Western blotting performed using an antibody that specifically recognizes STAT5 phosphorylated at tyrosine 694. The membrane was then stripped and reprobed with an antibody that recognizes total STAT5 protein.

[3] = test system: pYSTAT5 in erythroid cells (CD45lo, CD71hi) from bone marrow; test: Ex vivo pYSTAT5 flow cytometry in erythroid cells from JAK2 V617F positive patients; format: cell-based, human; conditions: 3 μM to 0.0041 μM, one hour, erythropoietin stimulated 10 minutes, patient bone marrow
Description: To assess the activity of small molecule inhibitors of JAK2 an assay has been developed to quantify the activity of the JAK-STAT pathway by measuring the phosphorylation status of the downstream protein STAT5. After ligand binding, a haemopoietic cytokine receptor undergoes conformational change activating associated JAK2 protein. Activated JAK2 then phosphorylates the intracellular portion of the receptor forming binding sites for the recruitment of intracellular signaling proteins. […]
Results of flow cytometry experiments are presented in two different formats (FIG. 7C). The pYSTAT5 positive population is quantitated as the percentage of cells in the upper right quadrant of the dot plot graphs (FIGS. 7A and B). […]
The second format of presentation is presented in the right panel of FIG. 7C. This measurement represents the mean fluorescence intensity in the pYSTAT5 channel and includes both erythroid cells that are stimulated by EPO and those that are not. This is an absolute value measurement of fluorescence and there was variability between these values between the three individuals tested. As the concentration of inhibitor is decreased the mean fluorescence of the total erythroid population moved towards the value of the positive control.

[4] = test system: BaF3 TELJAK cells (BafT_J2); test: Cellular screening, BaF3 TELJAK2 cells (Alamar Blue); format: cell-based; conditions: Mus musculus, BaF3; 48-72 hr incubation; read-out: BafT_J2_IC50_μM

## N#CCNC(=O)c1ccc(-c2ccnc(Nc3ccc(N4CCOCC4)cc3)n2)cc1 [Compound 3, N-(cyanomethyl)-4-(2-(4-morpholinophenyl-amino)pyrimidin-4-yl)benzamide]
[1]
  plasma IGF-1 concentration: marked decrease
[2]
  effect on IL-3 induced STAT5 phosphorylation (Western blot): dose-dependent effect; also recorded: decrease in STAT5 phosphorylation
[3]
  effect on pYSTAT5 (STAT5 phosphorylation) in erythroid cells: dose-dependent reduction
[3]; listed as compound 3
  effect on pYSTAT5 (STAT5 phosphorylation) in erythroid cells: dose-dependent increase in inhibition
[4]
  IC50: < 1000 nM
